Measured values published in patent publication US9655884B2, “Antiparasitic use of isoxazoline compounds” (Intervet Inc., priority 2013, dated 2017).

Assay: Adverse events in treated dogs following administration
Type: in vivo
Conditions: chewable tablet (Bravecto), close to 25 mg/kg body weight oral
Description: Twenty healthy male and female mixed-breed dogs ≧12 weeks old were housed in individual pens. Ten dogs per group were randomly assigned to receive either a fluralaner chewable tablet (Bravecto™) or no treatment. Each pen contained the bottom half of a dog carrier lined with carpet as bedding. Before treatment, each dog was infested twice (28 and 21 days pretreatment) with 100 adult, unfed C. felis to establish a flea population prior to treatment on each dog. Flea media was added to the carpet 4 weeks before the treatment date and weekly thereafter for the remainder of the study to encourage development of an active, developing population of juvenile flea stages in each pen. On the treatment day, dogs in the treated group received fluralaner at a dose close to 25 mg/kg body weight by oral administration. The chewable tablet(s) were administered by placement in the back of the oral cavity over the tongue to initiate swallowing. Dogs in the negative control group remained untreated.

In the case of `Cc1cc(C2=NOC(c3cc(Cl)cc(Cl)c3)(C(F)(F)F)C2)ccc1C(=O)NCC(=O)NCC(F)(F)F` (stereo not shown) [fluralaner, 4-[5-(3,5-Dichlorophenyl)-5-trifluoromethyl-4,5-dihydroisoxazol-3-yl]-2-methyl-N-[(2,2,2-trifluoro-ethylcarbamoyl)-methyl]-benzamide], the Adverse events is reported as “No adverse events were observed”.
